In patent publication US20080081841A1, “Materials and Methods for Modulating Cell Motility” (priority 2003, published 2008):

Assays:
[1] = test system: T47D-5R cells expressing Neu or Neu mutants (NYPD, YC, YD, YE); assay: Transwell migration assay, HRG-induced; assay type: cell-based, human; details: for HRG-induced migration of Neu cells: starting 4 hrs after HRG treatment, RNA or protein synthesis inhibitor
Method: (§1) Cell migration was tested using 8 μm-pore polycarbonate membrane Transwell chambers (Corning Costar Products, Acton, Mass., USA) as described previously^3. In brief, the bottom side of the membrane was coated with 25 μg/ml rat tail collagen I (Roche). Serum starved cells were plated in the top Transwell chamber. Medium with or without 1 nM HRG-β1 (R&D systems, Inc., Minneapolis, Minn., USA) was added to the bottom chamber and cells were allowed to migrate for 24 hours. Non-migrated cells were scraped off the top of the membrane. Migrated cells were fixed in 4% formaldehyde and stained in 0.1% crystal violet. Cells were counted under a microscope in ten high power fields. Migration was expressed as cell number per mm^2. In some instances, cells were pre-incubated for 60 minutes with the U0126 MEK inhibitor (50 μM; Promega), the LY294002 PI3K inhibitor (50 μM; Calbiochem-Novabiochem Corporation, San Diego, Calif., USA), the SB203580 p38 MAPK inhibitor (20 μM; Calbiochem), a Src inhibitor (2.5 μM), the U-73122 PLC inhibitor (2 μM; Calbiochem), cycloheximide (10 μg/ml; Sigma) or 5,6-dichloro-1-β-D-ribofuranosylbenzimidazole (20 μg/ml; Fluka Chemie GmbH, Buchs, Switzerland). Cells were then allowed to migrate for 8 hours before counting.
(§2) Cells were transfected with siRNA using Oligofectamine (GIBCO) according to the manufacturer's instructions. The following 21-mer oligoribonucleotide pairs (obtained from Xeragon Inc., Huntsville, Ala., USA) were used: for Shc (accession number HSU7377) nucleotide 236 to 25640, for Memo (CGI-27; accession number AF132961) nucleotide 460 to 480 and for control LacZ (accession number M55068) nucleotide 4277 to 4297. Cells were plated for migration assay 3 days after siRNA transfection and allowed to migrate for 24 hours. Cell lysates were also prepared 3 and 4 days after transfection and analyzed by Western blotting using a specific anti-Shc antibody (BD Transduction laboratories, Heidelberg, Germany). For Memo, mRNA was extracted using RNeasy Mini (Qiagen, Cologne, Germany) and quantitative radioactive PCR^41 was performed using Memo specific primers (forward from nucleotide 90 to 111 and reverse from nucleotide 235 to 256).
Peptides were delivered into cells using Chariot protein transfection reagent (Active Motif, Rixensart, Belgium) according to the instruction manual. 16 aa-peptides spanning Tyr residue 1201 of Neu (YC peptide) and Tyr residue 1227 of Neu (YD peptide) were obtained from Neosystem (Strasbourg, France) in phosphorylated and non phosphorylated forms. Cells were plated for migration 30 minutes after peptide transfection and the assay was finished after 22 hours.

ErbB2 = biological target: T1, ErbB2 (Homo sapiens, UniProt P04626); assay: Shc immunoprecipitation in SKBr3 cells; assay type: cell-based
T1 construct: endogenous in cells; host or cells: SKBr3 breast carcinoma cells

T47D and SKBr3 cells [2] = assay: Actin staining / lamellipodia morphology; assay type: cell-based; details: nocodazole-treated cells
Method: Cells were grown on glass coverslips (Falcon, Le Pont De Claix, France) coated with 25 μg/ml rat tail collagen I, serum starved overnight and stimulated with 1 nM HRG-β1 for different times. Cells were fixed in 4% formaldehyde in phosphate buffer saline (PBS) for 20 minutes, permeabilized in 0.2% Triton X-100 for 10 minutes, blocked with 1% bovine serum albumin in PBS for 20 minutes before addition of anti-Myc antibody (Santa Cruz) and Alexa-Fluor 568 goat anti-mouse IgG (Molecular Probes, Leiden, The Netherlands). DNA was counterstained with 0.25 mg/ml Hoechst No. 33342 (Sigma). Actin was stained for 45 minutes with 2 U/ml TRITC-labeled phalloidin (Molecular Probes). Images were recorded with an Axioskop Zeiss microscope coupled to a Sony 3CCD camera or an Olympus IX70 microscope linked to the DeltaVision workstation (Applied Precision, Issaquah, Wa)
F-actin was visualised with TRITC-labelled phalloidin.

T47D and SKBr3 cells [3] = assay: HRG-induced microtubule outgrowth; assay type: cell-based; details: nocodazole-treated cells
T47D cells = assay: Transwell migration assay; assay type: cell-based, human; details: FIG. 1a, 7f
Method: as §1
as §2, with “Cells were plated for migration assay 3 days after siRNA transfection and allowed to migrate for 24 hours.” left out

T1 sequence (P04626 23-1255): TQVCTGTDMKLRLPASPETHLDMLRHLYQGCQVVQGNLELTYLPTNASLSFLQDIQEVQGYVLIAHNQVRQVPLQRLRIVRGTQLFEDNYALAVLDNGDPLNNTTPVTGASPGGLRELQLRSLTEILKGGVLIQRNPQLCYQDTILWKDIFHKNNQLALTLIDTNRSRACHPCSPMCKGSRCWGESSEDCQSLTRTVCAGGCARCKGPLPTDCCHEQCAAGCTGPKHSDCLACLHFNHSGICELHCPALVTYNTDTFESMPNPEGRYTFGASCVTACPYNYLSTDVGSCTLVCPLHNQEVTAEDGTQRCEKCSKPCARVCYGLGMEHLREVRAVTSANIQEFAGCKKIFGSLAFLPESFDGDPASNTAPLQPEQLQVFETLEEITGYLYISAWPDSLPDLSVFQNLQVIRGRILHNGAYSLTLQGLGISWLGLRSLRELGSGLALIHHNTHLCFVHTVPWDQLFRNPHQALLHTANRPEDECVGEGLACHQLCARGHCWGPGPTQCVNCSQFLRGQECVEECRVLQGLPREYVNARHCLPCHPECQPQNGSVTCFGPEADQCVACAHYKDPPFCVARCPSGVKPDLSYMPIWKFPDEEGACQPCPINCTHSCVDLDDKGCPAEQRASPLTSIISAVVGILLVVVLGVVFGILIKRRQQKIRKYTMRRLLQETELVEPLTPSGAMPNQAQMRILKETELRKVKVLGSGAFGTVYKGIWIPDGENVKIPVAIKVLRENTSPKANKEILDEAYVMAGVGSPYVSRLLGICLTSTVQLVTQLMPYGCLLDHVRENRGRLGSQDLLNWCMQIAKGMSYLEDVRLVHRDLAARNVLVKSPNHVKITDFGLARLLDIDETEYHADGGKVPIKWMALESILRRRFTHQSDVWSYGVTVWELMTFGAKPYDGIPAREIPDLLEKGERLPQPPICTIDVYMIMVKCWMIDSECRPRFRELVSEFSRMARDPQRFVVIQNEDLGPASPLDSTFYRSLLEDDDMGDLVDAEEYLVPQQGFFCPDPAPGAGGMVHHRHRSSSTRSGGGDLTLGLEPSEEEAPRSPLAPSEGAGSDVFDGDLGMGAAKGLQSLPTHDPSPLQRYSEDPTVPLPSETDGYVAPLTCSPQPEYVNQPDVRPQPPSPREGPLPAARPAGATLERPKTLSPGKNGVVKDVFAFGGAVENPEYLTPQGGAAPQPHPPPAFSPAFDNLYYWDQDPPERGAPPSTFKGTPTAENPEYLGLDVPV

OC[C@H]1O[C@@H](n2cnc3cc(Cl)c(Cl)cc32)[C@H](O)[C@@H]1O [DRB, 5,6-Dichloro-1-β-D-ribofuranosylbenzimidazole]
HRG-induced migration of Neu cells ([1]; FIG. 4a): strongly blocked

C[C@@H](Nc1ncnc2[nH]c(-c3ccc(O)cc3)cc12)c1ccccc1 [PKI166]
CGI-27's ability to associate with Shc (ErbB2): did not influence
ErbB2 receptor level in Shc immunoprecipitates (ErbB2): lowered

C[C@@H]1C[C@@H]([C@H](O)CC2CC(=O)NC(=O)C2)C(=O)[C@@H](C)C1 [cycloheximide]
migration rate of Neu cells ([1]; compared with NYPD cells, FIG. 4a): reduced the migration rate of Neu cells to that of NYPD cells
migration of YD cells, cycloheximide treatment and Memo knock-down compared ([1]; effects not additive, FIG. 7d): blocked to a similar extent
HRG-induced migration of Neu cells ([1]; FIG. 4a): strongly blocked

COC(=O)Nc1nc2ccc(C(=O)c3cccs3)cc2[nH]1 [nocodazole]
lamellipodia formation (T47D and SKBr3 cells [2]): still capable of forming lamellipodia
microtubule growth (T47D and SKBr3 cells [3]): do not grow microtubules

EGF: epidermal growth factor (NSDSECPLSHDGYCLHDGVCMYIEALDKYACNCVVGYIGERCQYRDLKWWELR; Epidermal growth factor; UniProt P01133 971-1023, looked up)
stimulation of T47D cell migration by ligand (T47D cells): to a lower degree

FGF2: Fibroblast growth factor (FGF) 2
stimulation of T47D cell migration by ligand (T47D cells): stimulated T47D cell migration

insulin: insulin
stimulation of T47D cell migration by ligand (T47D cells): to a lower degree
